Experimental data from patent publication US11458212B2, “Molecular imaging of cancer cells in vivo” (H. Lee Moffitt Cancer Center and Research Institute, Inc., priority 2011, dated 2022).
“Also recorded” adds a separate entry of the source. Where a SMILES comes first, the peptide text is derived from it. Primed or numbered codes have the meaning given here. The star is where a group is joined. Adapalene = Adapaleneyl (acyl group from adapalene), COc1ccc(-c2ccc3cc(C(=O)*)ccc3c2)cc1C12CC3CC(CC(C3)C1)C2; Propyl(2R-PamO,3-PamO) = CCCCCCCCCCCCCCCC(=O)OC[C@H](C*)OC(=O)CCCCCCCCCCCCCCC; X2 = CCCCCCCCCCCCCCCC(=O)OCC(C*)OC(=O)CCCCCCCCCCCCCCC; X1 = CC(=O)NCCCOCCOCCOCCCNC(=O)COCC(=O)*; Palmitoyl = CCCCCCCCCCCCCCCC(=O)*; Ahx = NCCCCCC(=O)O; Dhc(Pam)2″ = lipid

Columns and labels:
[1] = target: TLR2 (Homo sapiens, UniProt O60603); assay: In vitro TLR2 functional bioassay (NF-κB luciferase, HEK293/hTLR2 cells); type: cell-based; parameters: host or cells: HEK293 stably transfected with pUNO-hTLR2, transiently transfected with the pNifty-Luc reporter; details: for EC50: log(agonist) vs. normalized response, doses 0.01 ng/mL to 1 μg/mL, read-out: EC50; for TLR2 Agonist Activity: screened at 1 μg/mL; for fold of enhancement vs SAA at 1 μg/mL / fold of enhancement vs SAA at 10 μg/mL: compound at 1 μg/mL
TLR2, sequence (O60603 21-784): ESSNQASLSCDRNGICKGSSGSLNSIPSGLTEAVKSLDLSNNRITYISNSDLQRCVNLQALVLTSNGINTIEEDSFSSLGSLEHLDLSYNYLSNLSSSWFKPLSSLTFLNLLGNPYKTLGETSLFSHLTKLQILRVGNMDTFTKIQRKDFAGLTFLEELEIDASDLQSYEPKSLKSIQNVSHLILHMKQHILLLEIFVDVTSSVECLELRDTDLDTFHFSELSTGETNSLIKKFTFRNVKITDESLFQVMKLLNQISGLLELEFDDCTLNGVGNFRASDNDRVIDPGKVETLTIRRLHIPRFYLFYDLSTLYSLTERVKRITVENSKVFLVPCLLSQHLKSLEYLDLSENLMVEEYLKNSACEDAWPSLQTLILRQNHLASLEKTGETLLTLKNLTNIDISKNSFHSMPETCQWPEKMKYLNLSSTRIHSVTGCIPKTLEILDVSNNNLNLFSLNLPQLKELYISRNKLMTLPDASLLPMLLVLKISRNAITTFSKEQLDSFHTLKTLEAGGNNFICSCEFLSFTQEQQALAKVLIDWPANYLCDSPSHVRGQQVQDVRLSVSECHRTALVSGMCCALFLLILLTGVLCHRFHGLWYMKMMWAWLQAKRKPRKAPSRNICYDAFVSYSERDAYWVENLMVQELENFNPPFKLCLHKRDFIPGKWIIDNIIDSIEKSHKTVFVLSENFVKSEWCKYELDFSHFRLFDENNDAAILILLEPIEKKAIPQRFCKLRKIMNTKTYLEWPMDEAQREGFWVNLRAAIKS
TLR2, sequence (Q9Y2C9 32-796 partner): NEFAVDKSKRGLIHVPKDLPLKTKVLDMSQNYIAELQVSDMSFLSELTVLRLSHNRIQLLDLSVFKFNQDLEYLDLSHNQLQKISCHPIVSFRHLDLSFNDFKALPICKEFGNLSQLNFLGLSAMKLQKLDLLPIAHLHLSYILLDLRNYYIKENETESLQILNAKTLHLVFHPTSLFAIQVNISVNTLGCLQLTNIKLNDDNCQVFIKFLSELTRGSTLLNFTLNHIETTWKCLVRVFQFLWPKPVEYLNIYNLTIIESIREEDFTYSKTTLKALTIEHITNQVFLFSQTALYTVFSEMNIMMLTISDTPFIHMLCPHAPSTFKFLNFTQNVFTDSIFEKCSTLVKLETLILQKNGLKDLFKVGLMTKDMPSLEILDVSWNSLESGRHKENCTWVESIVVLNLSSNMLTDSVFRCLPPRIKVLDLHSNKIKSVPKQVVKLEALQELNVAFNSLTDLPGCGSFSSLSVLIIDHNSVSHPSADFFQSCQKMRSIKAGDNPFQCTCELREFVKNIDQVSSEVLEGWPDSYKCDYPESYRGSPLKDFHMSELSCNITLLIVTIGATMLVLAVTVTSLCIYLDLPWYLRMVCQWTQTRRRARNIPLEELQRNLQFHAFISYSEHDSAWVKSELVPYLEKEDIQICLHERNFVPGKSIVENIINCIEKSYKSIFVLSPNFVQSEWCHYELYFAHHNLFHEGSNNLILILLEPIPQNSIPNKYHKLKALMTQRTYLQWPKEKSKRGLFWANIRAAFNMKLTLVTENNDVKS
From the text: In Vitro TLR2 Functional Bioassay The in vitro TLR2 functional bioassay was developed and optimized for use in screening soluble compound libraries to identify both TLR2 agonists and antagonists. In this study, the TLR2 functional bioassay was used as a fast high throughput screening to identify TLR2 agonist ligands by measuring the inducing activity of NF-κB. HEK293/hTLR2 cells, highly overexpressing human TLR2, were used along with the parental HEK293, cells as a negative control. Cells were seeded at a density of 40,000 per well using a WellMate® Microplate dispenser (Thermo Fischer Scientific/Matrix) in black 96-well plates with opaque white wells (Perkin Elmer Wallac, Waltham, Mass.) and then incubated at 37° C. On day 2, the cells were transiently transfected with pNifty-Luc (InvivoGen), an NF-κB inducible reporter plasmid expressing the luciferase reporter gene (Zuany-Amorim, C., J., et al. Nat Rev Drug Discov, 2002. 1(10):797-807), using an optimized 4:1 ratio by volume of Fugene® HD Transfection Reagent (Roche Applied Science, Indianapolis, Ind.) to pNifty-Luc plasmid DNA (1 μg/mL). […] On day 4 after 24 hrs of peptide stimulation, luciferase induced activity by the induction of NF-κB was measured. Media was aspirated from the wells using an ELx405 Select plate washer (BioTek, Winooski, Vt.), 150 μg/mL D-luciferin (Gold Biotechnology, St. Louis, Mo.) was dispensed using the microplate dispensor; the plates were incubated at 37° C. for 5 min. The luminescence intensity was measured using the standard luminescence protocol on a Victor™ X4 plate-reader equipped with a plate stacker for readout of multiple plates at a time (PerkinElmer, Waltham, Mass.). For each in vitro TLR2 bioassay, at least three different experiments were performed in triplicate (n=3+). Data were analyzed with GraphPad Prism software and curves were generated with the appropriate nonlinear fit regression analysis.
The in vitro TLR2 functional bioassay was developed and optimized for use in high-throughput screening of soluble compound libraries to identify both TLR2 agonists and antagonists. The bioassay measures the induction of NF-κB signaling via TLR2 in HEK-293/hTLR2 cells and parental HEK-293 cells as a negative control. Cells were seeded at a density of 40,000 per well using a WellMate Microplate dispenser (Thermo Fisher Scientific/Matrix) in black 96-well plates with opaque white wells (PerkinElmer, Waltham, Mass.) and then incubated at 37° C. On day 2, the cells were transiently transfected with pNifty-Luc (InvivoGen, San Diego, Calif.), an NF-κB inducible reporter plasmid expressing the luciferase reporter gene[28] using an optimized 4:1 ratio by volume of FugeneHD Transfection Reagent (Promega, Madison, Wis.) to pNifty-Luc plasmid DNA (1 μg/mL). […] […] On day 4 after 24 h of peptide stimulation, luciferase induced activity by the induction of NF-κB was measured. Media was aspirated from the wells using an ELx405 Select CW plate washer (BioTek, Winooski, Vt.), 150 μg/mL D-luciferin (Gold Biotechnology, St. Louis, Mo.) was dispensed using the microplate dispensor; the plates were incubated at 37° C. for 5 min. The luminescence intensity was measured using the standard luminescence protocol on a Victor X4 Multilabel plate reader equipped with a plate stacker for readout of multiple plates at a time (PerkinElmer, Waltham, Mass.). […] Data were analyzed with GraphPad Prism software and curves were generated with the appropriate nonlinear fit regression analysis.

[2] = system: Trp1455/9M-specific CD8 T cells; assay: In vivo cellular immune response assay (immune adjuvant); parameters: species or system B6 mice; details: for in vivo immune adjuvant activity (generation and persistence of antigen-specific CD8 T cells): compared with Pam2CSK4 and Pam3CSK4
Method: To assess the efficacy of T-02 as an immune adjuvant, mice were immunized i.v. with a mixture of 100 μg optimized Trp1455/9M peptide (Guevara-Patino, J. A., et al. J Clin Invest, 2006. 116(5):1382-90), 50 μg anti-CD40 mAb (Clone; FGk-45.5), and 50 μg TLR-2 peptide (T-02, Pam2CSK4, or Pam3CSK4). […] The response of tetramer+ CD8 T cells in the blood was measured on day 7, 21, and 34 by tetramer staining. For tetramer staining, peripheral blood was taken from the submandibular vein and treated briefly with ammonium chloride buffer to lyse red blood cells. Blood cells were stained with FITC-conjugated anti-MHC class II, PerCP Cy5.5-conjugated CD8a (both from eBioscience, San Diego, Calif.), and phycoerythrin-conjugated Trp1455/9M/H-2D^b tetramers (provided by the NIH tetramer Facility, Emory University, Atlanta Ga.) for 40 min in ice. Fluorescence was evaluated using a FACSCalibur™ flow cytometer (BD Biosciences) and analyzed using FlowJo software.
C57BL/6 (B6) mice 6-8 weeks old were purchased from Charles River (Wilmington, Mass.). To assess the efficacy of 10 as an immune adjuvant, B6 mice were immunized i.v. with a mixture (in a volume of 200 μl) of 100 μg optimized Trp1455/9M peptide,[10c] 50 μg anti-CD40 monoclonal antibody (Clone; FGk-45.5), and 50 μg TLR2 agonist (10, Pam2CSK4, or Pam3CSK4). […] The response of tetramer positive CD8 T cells in the blood was measured on day 7, 21 and 34 by tetramer staining. For tetramer staining, peripheral blood was taken from the submandibular vein and treated briefly with ammonium chloride buffer to lyse red blood cells. Blood cells were stained with FITC-conjugated anti-MHC class II, PerCP Cy5.5-conjugated CD8a, and phycoerythrin-conjugated Trp1455/9M/H-2D^b tetramers for 40 min in ice. Fluorescence was evaluated using a FACSCalibur flow cytometer (BD Biosciences) and analyzed using FlowJo software.

In the case of `CCCCCCCCCCCCCCCC(=O)OC[C@H](CSC[C@H](NC(=O)COCC(=O)NCCCOCCOCCOCCCNC(C)=O)C(=O)NCC(=O)N[C@@H](CC(N)=O)C(=O)N[C@@H](CC(N)=O)C(=O)N[C@@H](CC(=O)O)C(=O)N[C@@H](CCC(=O)O)C(=O)N[C@@H](CO)C(=O)N[C@@H](CC(N)=O)C(=O)N[C@H](C(=O)N[C@@H](CO)C(=O)N[C@@H](Cc1ccccc1)C(=O)N[C@@H](CCCCN)C(=O)N[C@@H](CCC(=O)O)C(=O)N[C@@H](CCCCN)C(N)=O)[C@@H](C)CC)OC(=O)CCCCCCCCCCCCCCC` [Compound 3] (X1-C(Propyl(2R-PamO,3-PamO))GNNDESNISFKEK-NH2), the EC50 [1] is reported as 55.6 nM and the “TLR2 Agonist Activity” value [1] is reported as “Yes”.
`CCCCCCCCCCCCCCCC(=O)OCC(CSCC(NC(=O)COCC(=O)NCCCOCCOCCOCCCNC(C)=O)C(=O)NC(CO)C(=O)NC(CCCNC(=N)N)C(=O)NC(Cc1ccccc1)C(=O)NC(CC(=O)O)C(=O)NC(CCC(=O)O)C(=O)NC(CC(=O)O)C(=O)NC(CC(=O)O)C(=O)NC(CC(C)C)C(=O)NC(CCC(=O)O)C(N)=O)OC(=O)CCCCCCCCCCCCCCC` (centres unmarked) [Compound 8] (X1-C(X2)SRFDEDDLE-NH2; configuration not given here) was tested, and the “fold of enhancement vs SAA at 1 μg/mL” value [1] was 11 fold and the “fold of enhancement vs SAA at 10 μg/mL” value [1] was 4.2 fold.
With `CCCCCCCCCCCCCCCC(=O)OC[C@H](CSC[C@H](NC(=O)COCC(=O)NCCCOCCOCCOCCCNC(C)=O)C(=O)NCC(=O)N[C@@H](CO)C(=O)N[C@@H](CCC(N)=O)C(=O)N[C@@H](CC(N)=O)C(=O)N[C@@H](CC(C)C)C(=O)N[C@@H](C)C(=O)N[C@@H](CO)C(=O)N[C@@H](CC(C)C)C(=O)N[C@@H](CCC(=O)O)C(=O)N[C@@H](CCC(=O)O)C(N)=O)OC(=O)CCCCCCCCCCCCCCC` [Compound 9] (X1-C(Propyl(2R-PamO,3-PamO))GSQNLASLEE-NH2) the “fold of enhancement vs SAA at 1 μg/mL” value [1] was 13 fold, the “fold of enhancement vs SAA at 10 μg/mL” value [1] was 4.8 fold and the EC50 [1] was 78.4 nM.
`CCCCCCCCCCCCCCCC(=O)OC[C@H](CSC[C@H](NC(=O)COCC(=O)NCCCOCCOCCOCCCNC(C)=O)C(=O)NCC(=O)NC(CO)C(=O)NCCCOCCOCCOCCCNC(=O)COCC(N)=O)OC(=O)CCCCCCCCCCCCCCC` (stereo partly drawn) [Compound 10, Ac-PEGO-Dhc(Pam)2-Gly-Ser-PEGO-NH2] was tested, and the “in vivo immune adjuvant activity (generation and persistence of antigen-specific CD8 T cells)” value [2] was “stimulated the immune system by generation and persistence of antigen-specific CD8 T cells; also recorded: exhibited activity similar to the other known TLR2 agonists; also recorded: induced an in vivo immune response comparable to the currently available TLR2 synthetic agonists”, the “in vivo immune adjuvant activity (generation and persistence of antigen-specific CD8 T cells)” value ([2]; listed as T-02) was “exhibited similar in vivo activity comparable to the TLR-2 agonists, Pam2CSK4 and Pam3CSK4” and the “fluorescence of stained tetramer positive CD8 T cells” value ([2]; day 7) was “High fluorescence”. The “response rate of the tetramer positive CD8 T cells” value ([2]; day 7) was 100%, the “maximum amount of fluorescently stained tetramer positive CD8 T cells” value ([2]; day 7, peripheral blood, i.v. immunization, n=3) was 49.6% and the “tetramer positive CD8 T cells” value ([2]; day 21) was 25.7%. The “tetramer positive CD8 T cells” value ([2]; day 34) was 12.7%, the “fold of enhancement vs SAA at 1 μg/mL” value [1] was 14 fold and the “fold of enhancement vs SAA at 10 μg/mL” value [1] was 5.2 fold.
For “Ac-Aha-Dhc(Pam)2-Gly-Asn-Asn-Asp-Glu-Ser-Asn-Ile-Ser-Phe-Lys-Glu-Lys-NH2 ({Ac-Ahx-Dhc(Pam)2″}-GNNDESNISFKEK-NH2) [Compound 4]”, the “TLR2 Agonist Activity” value [1] was “Yes”.
For “Ac-Aun(C11)-Dhc(Pam)2-Gly-Asn-Asn-Asp-Glu-Ser-Asn-Ile-Ser-Phe-Lys-Glu-Lys-NH2 ({Ac-Aun(C11)-Dhc(Pam)2″}-GNNDESNISFKEK-NH2) [Compound 6]”, the “TLR2 Agonist Activity” value [1] was “Yes”.
“Adapalene-Dhc(Pam)2-Gly-Asn-Asn-Asp-Glu-Ser-Asn-Ile-Ser-Phe-Lys-Glu-Lys-NH2 ({Adapalene-Dhc(Pam)2″}-GNNDESNISFKEK-NH2) [Compound 5]” was tested, and the “TLR2 Agonist Activity” value [1] was “Yes”.
With “Fluorescein-Dhc(Pam)2-Gly-Asn-Asn-Asp-Glu-Ser-Asn-Ile-Ser-Phe-Lys-Glu-Lys-NH2 ({Fluorescein-Dhc(Pam)2″}-GNNDESNISFKEK-NH2) [Compound 2]” the “TLR2 Agonist Activity” value [1] was “Yes”.
For “Pam-Dhc(Pam)2-Gly-Asn-Asn-Asp-Glu-Ser-Asn-Ile-Ser-Phe-Lys-Glu-Lys-NH2 ({Palmitoyl-Dhc(Pam)2″}-GNNDESNISFKEK-NH2) [Compound 1]”, the “TLR2 Agonist Activity” value [1] was “Yes”.
With “Tretinoin-Dhc(Pam)2-Gly-Asn-Asn-Asp-Glu-Ser-Asn-Ile-Ser-Phe-Lys-Glu-Lys-NH2 [Compound 7]” the “TLR2 Agonist Activity” value [1] was “Yes”.
In the case of “Trp1455/9M: Trp1455/9M (TAPDNLGYM), H2 Db-optimized peptide from mouse tyrosinase-related protein-1, epitope for CD8 T cells [reference compound]”, the “TLR2 agonist activity of vaccine peptide” value [1] is reported as “not a TLR2 agonist”.
